How the values were obtained:
Oxoeicosanoid receptor 1 [1] = biological target: T1, Oxoeicosanoid receptor 1 (Homo sapiens, UniProt Q8TDS5); test: Agonist activity at human PK-tagged OXER1 expressed in CHOK1 cells assessed as EA-tagged beta-arrestin recruitment by beta-galactosidase enzyme fragment complementation assay relative to control; format: functional, cell-based
Oxoeicosanoid receptor 1 [2] = biological target: T1, Oxoeicosanoid receptor 1; test: Agonist activity at human PK-tagged OXER1 expressed in CHOK1 cells assessed as EA-tagged beta-arrestin recruitment by beta-galactosidase enzyme fragment complementation assay; format: functional, cell-based

T1 sequence (Q8TDS5 whole entry, the tested form may be a part): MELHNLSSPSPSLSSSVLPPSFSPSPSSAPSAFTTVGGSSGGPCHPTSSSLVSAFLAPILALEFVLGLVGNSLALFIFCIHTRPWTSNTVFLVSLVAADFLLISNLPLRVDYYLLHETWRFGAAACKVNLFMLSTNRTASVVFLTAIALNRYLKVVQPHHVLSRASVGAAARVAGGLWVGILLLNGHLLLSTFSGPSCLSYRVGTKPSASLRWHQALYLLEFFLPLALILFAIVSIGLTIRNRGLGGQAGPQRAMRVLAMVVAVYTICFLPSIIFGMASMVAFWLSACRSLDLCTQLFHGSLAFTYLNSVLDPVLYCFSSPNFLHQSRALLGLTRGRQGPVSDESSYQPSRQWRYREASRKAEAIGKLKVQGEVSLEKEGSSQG

Emax (Oxoeicosanoid receptor 1 [1]) [%] | EC50 (Oxoeicosanoid receptor 1 [2]) [nM] | Compound
133 | 1540 | CCCCC/C=C\C/C=C\C/C=C\C=C\C(=O)CCCC(=O)OC
64 | > 100000 | CC/C=C\C/C=C\C/C=C\C/C=C\C/C=C\C=C\C(=O)CCC(=O)OC
80 | 380 | CC/C=C\C/C=C\C/C=C\C/C=C\C=C\C(=O)CCCC(=O)O
119 | 2080 | CC/C=C\C/C=C\C/C=C\C/C=C\C=C\C(=O)CCCC(=O)OC
23 | > 100000 | CC/C=C\C/C=C\C/C=C\C/C=C\C/C=C\C=C\C(=O)CCC(=O)O
100 | 220 | CCCCC/C=C\C/C=C\C/C=C\C=C\C(=O)CCCC(=O)O [5-OXO-ETE]

Reference: ChEMBL document CHEMBL4118243, “Synthesis, molecular modelling studies and biological evaluation of new oxoeicosanoid receptor 1 agonists” (Bioorg Med Chem, 2018)
